This is an account of results in patent US5164406A, “Method for enhancing transdermal penetration and compositions useful therein” (priority 1989, dated 1992).

Structures can show the parent of a compound that is named as a salt. Where two headings read alike, the source gives them in different places.

The procedure of the series:
Polyoxyethylene stearyl ethers, 3 wt. %
Polyoxypropylene fatty alcohol ethers, 3 wt. %
Deionized water, 94 wt. %
Further, in all cases, unless otherwise noted, the tests were carried out at 37° C. and results were compared to penetration data for the same material in the oil/water emulsion base. Moreover, all percentages of composition components recited are, unless otherwise indicated, weight percent (wt. %) and are based upon the total weight of the composition.
The test method is carried out as follows:
A. Prior to testing, rats are routinely acclimated to the laboratory environment for seven days and gross observations are made to ensure good health of the animals to be tested.
B. Female Sprague Dawley rats (190-240 gm) are selected for testing and identified by cage label and ear tag number.
C. Diffusion Cell Preparation.
1. An O-ring is placed on a standard Franz Diffusion Cell. A stir bar is placed in the receptor compartment. Each cell is filled with approximately 4.5 ml sterile physiologic saline (receptor compartments are calibrated to contain 5.0 ml).
2. The jacketed diffusion cells are maintained at 37° C.±1° (or alternatively desired temperature) using an external water bath and a circulating pump.
D. Skin Section Preparation and Mounting
1. Test animals are sacrificed by intraperitoneal injection of 0.4 ml/100 gm. body weight sodium pentobarital (1 gm/ml).
2. The backs are lightly shaved using electric hair clippers.
3. A section of skin, measuring approximately 8 cm long by 7 cm wide, is removed from the back of each rat using a No. 20 scalpel assuring that the skin section is free from subcutaneous fat.
4. A piece of the skin section is mounted over an O-ring on the diffusion cell, epidermal side facing up. The donor compartment is placed on top of the skin section making a complete seal over the skin. A clamp is used to secure the skin section in place.
5. Air bubbles that collect under the skin are removed by inverting the diffusion cell and tapping it gently. The receptor compartment is filled with sterile physiologic saline to 5.0 ml.
E. Application of Test Materials
1. Test and control materials are applied to the skin using s syringe or spatula. The material is spread evenly and completely over the exposed skin surface using the tip of the syringe/spatula.
1. An HPLC carousel is loaded with microvials. Springs and inserts are placed into the microvials.
2. Receptor compartments are sampled at desired time intervals using a microliter (μl) syringe. The sample (approximately 160 μl) is placed into the insert. The microvial is sealed with a plastic cap.
3. When multiple sampling is required, the receptor compartment is replenished with sterile physiologic saline to maintain a 5.0 ml volume.
Samples are analyzed using standard analytical techniques. The presence of test material in the samples is indicative of transdermal penetration.

Where [1] appears, read: 2% TPL in B with 0.5% imidazole derivative, Table 2, average of multiple determinations.
Setting [2] is: multiple of average control determination of the same study, 2% TPL in B with 0.5% imidazole derivative, Table 2.

On to “1-cyanoethyl-2-phenylimidazole [1-CYANOETHYL-2-PHENYL IMIDAZOLE]”, for which the “24 hour penetration of tripelennamine HCl (total micrograms base)” value under setting [1] was determined as 310 micrograms base. For the same molecule, the “Increase in penetration relative to control” value under setting [2] came out at 2.6.
As to `Cc1nccn1C` [1-2 DIMETHYL IMIDAZOLE, 1,2-dimethylimidazole], the “24 hour penetration of tripelennamine HCl (total micrograms base)” value came out at 374 micrograms base and the “Increase in penetration relative to control” value turned out to be 4.3.
For `CC(C)=CCCC(C)=CCn1ccnc1` [1-(3,7-dimethyl-2,6-octadienyl) imidazole], the “24 hour penetration of tripelennamine HCl (total micrograms base)” value was found to be 479 micrograms base and the “Increase in penetration relative to control” value came to 2.6.
With `c1ccc(Cn2ccnc2)cc1` [1-BENZYL IMIDAZOLE], the “24 hour penetration of tripelennamine HCl (total micrograms base)” value under setting [1] came to 277 micrograms base. For the same molecule, the “Increase in penetration relative to control” value under setting [2] turned out to be 1.1.
As to `Cc1nccn1Cc1ccccc1` [1-BENZYL-2-METHYL IMIDAZOLE], the “24 hour penetration of tripelennamine HCl (total micrograms base)” value is recorded as 463 micrograms base and the “Increase in penetration relative to control” value was found to be 1.8.
`CCCCn1ccnc1` [1-BUTYL IMIDAZOLE]: the “24 hour penetration of tripelennamine HCl (total micrograms base)” value was determined as 497 micrograms base and the “Increase in penetration relative to control” value is given as 2.1.
In the case of `CCCCCCCCCCn1ccnc1` [1-DECYL IMIDAZOLE], the “24 hour penetration of tripelennamine HCl (total micrograms base)” value turned out to be 446 micrograms base and the “Increase in penetration relative to control” value came out at 3.7.
For `CCCCCCCCCCCCn1ccnc1` [1-DODECYL IMIDAZOLE], the “24 hour penetration of tripelennamine HCl (total micrograms base)” value came to 479 micrograms base and the “Increase in penetration relative to control” value is given as 4.0.
Turning to `CC(C)n1ccnc1` [1-ISOPROPYL IMIDAZOLE], the “24 hour penetration of tripelennamine HCl (total micrograms base)” value amounted to 527 micrograms base and the “Increase in penetration relative to control” value was 2.9.
Regarding `Cn1ccnc1` [1-METHYL IMIDAZOLE], under setting [1], the “24 hour penetration of tripelennamine HCl (total micrograms base)” value was determined as 728 micrograms base. Moreover, under setting [2], the “Increase in penetration relative to control” value is listed as 3.0.
Turning to `c1ccc(-n2ccnc2)cc1` [1-PHENYL IMIDAZOLE], the “24 hour penetration of tripelennamine HCl (total micrograms base)” value under setting [1] is listed as 450 micrograms base. Moreover, the “Increase in penetration relative to control” value under setting [2] is reported as 1.8.
In the case of `Cc1ncc[nH]1` [2-METHYL IMIDAZOLE], the “24 hour penetration of tripelennamine HCl (total micrograms base)” value was 615 micrograms base and the “Increase in penetration relative to control” value turned out to be 2.6.
As to `c1ccc(-c2ncc[nH]2)cc1` [2-PHENYL IMIDAZOLE], the “24 hour penetration of tripelennamine HCl (total micrograms base)” value under setting [1] was 435 micrograms base. Also, the “Increase in penetration relative to control” value under setting [2] worked out at 1.7.
With `CCCc1ncc[nH]1` [2-PROPYL IMIDAZOLE], the “24 hour penetration of tripelennamine HCl (total micrograms base)” value is listed as 554 micrograms base and the “Increase in penetration relative to control” value is listed as 2.2.
On to `CCCCCCCCCCCCCCCCCc1ncc[nH]1` [2-[…]], for which the “24 hour penetration of tripelennamine HCl (total micrograms base)” value under setting [1] turned out to be 358 micrograms base. Further, the “Increase in penetration relative to control” value under setting [2] worked out at 1.5.
As for `Cc1nc[nH]c1CO` [4-(HYDROXYMETHYL) 5-METHYL IMIDAZOLE], the “24 hour penetration of tripelennamine HCl (total micrograms base)” value is 149 micrograms base and the “Increase in penetration relative to control” value is 1.2.
Consider `NNC(=O)c1c[nH]cn1` [4-CARBOXYLIC ACID HYDRAZIDE IMIDAZOLE], for which, under setting [1], the “24 hour penetration of tripelennamine HCl (total micrograms base)” value turned out to be 143 micrograms base. Moreover, the “Increase in penetration relative to control” value under setting [2] turned out to be 1.7.
Take `OCc1c[nH]cn1` [4-HYD[…], 4-hydroxymethyl imidazole]: the “24 hour penetration of tripelennamine HCl (total micrograms base)” value under setting [1] worked out at 224 micrograms base. For the same molecule, the “Increase in penetration relative to control” value under setting [2] was 3.2.
On the same counts, the results for `Cc1c[nH]cn1` [4-METHYL IMIDAZOLE] are 477 micrograms base and 3.9.
Take `O=[N+]([O-])c1c[nH]cn1` [4-NITRO IMIDAZOLE]: the “24 hour penetration of tripelennamine HCl (total micrograms base)” value came out at 142 micrograms base and the “Increase in penetration relative to control” value worked out at 1.2.
As to `c1ccc(-c2c[nH]cn2)cc1` [4-PHENYL IMIDAZOLE], under setting [1], the “24 hour penetration of tripelennamine HCl (total micrograms base)” value is listed as 368 micrograms base. Also, the “Increase in penetration relative to control” value under setting [2] was found to be 3.0.
As for `CC(=O)Oc1ccccc1C(=O)O` [ASA, ASPIRIN, reference compound], the “24 hour penetration (total micrograms base)” value is 87.5 micrograms base.
Consider `N[C@H](Cc1c[nH]cn1)C(=O)O` [D-HISTIDINE, D-histidine], for which the “24 hour penetration of tripelennamine HCl (total micrograms base)” value is on record as 197 micrograms base and the “Increase in penetration relative to control” value is given as 2.8.
On to `COc1ccc2c(c1)[C@]13CCCC[C@@H]1[C@H](C2)N(C)CC3` [DEX, DEXTRO[…], HBR, reference compound], for which the “24 hour penetration (total micrograms base)” value runs as follows: (B + 2% DEX + 0.5% IPM + 0.5% IMI, Table 3 Study VIII) 360 micrograms base; (control: 2% of the drug alone in B, Table 3) 124 micrograms base. For the same molecule, the “Increase in penetration relative to control” value (multiple of average control determination, B + 2% DEX + 0.5% IPM + 0.5% IMI, Table 3 Study VIII) is listed as 2.9.
Take `NS(=O)(=O)c1cc2c(cc1Cl)NCNS2(=O)=O` [HCTZ, HYDROCHLOROTHIAZIDE, reference compound]: the “24 hour penetration (total micrograms base)” value is given as 1.7 micrograms base. Besides, the “Imidazole enhanced the transdermal penetration (fold)” value (5% HCTZ with 1% imidazole, Table 3 Study IX) was “five”.
Regarding `CC(C)Cc1ccc(C(C)C(=O)O)cc1` (stereo not drawn) [IBU, IBUPROFEN, reference compound], the “24 hour penetration (total micrograms base)” value runs as follows: (B + 5% drug + 0.5% imidazole (IMI), Table 3) 378.0 micrograms base; (control: 5% of the drug alone in B, Table 3) 181.5 micrograms base. The “Increase in penetration relative to control” value (multiple of average control determination, B + 5% drug + 0.5% IMI, Table 3) amounted to 2.1.
As to `CC(C)NCC(O)c1cc(O)cc(O)c1` (stereo not drawn) [MET, METAPROTERENOL SULFATE, reference compound], the “24 hour penetration (total micrograms base)” value is recorded as 47.6 micrograms base.
With `Cn1cc[nH]c1=S` [METHIMIDAZOLE, methimazole, reference compound], the “24 hour penetration of tripelennamine HCl (total micrograms base)” value worked out at 301 micrograms base and the “Increase in penetration relative to control” value is on record as 3.5.
For the molecule `NCCCn1ccnc1` [N-(3-AMINOPROPYL) IMIDAZOLE, N-(3-aminopropyl)imidazole], the “24 hour penetration of tripelennamine HCl (total micrograms base)” value amounted to 457 micrograms base and the “Increase in penetration relative to control” value was determined as 2.5.
On the same counts, the results for `CCC(=O)n1ccnc1` [N-PROPIONYL IMIDAZOLE] are 453 micrograms base and 2.5.
In the case of `O=C(/C=C/c1ccccc1)n1ccnc1` [N-TRANS-CINNAMOYL], the “24 hour penetration of tripelennamine HCl (total micrograms base)” value turned out to be 153 micrograms base and the “Increase in penetration relative to control” value came out at 1.8.
On to `c1ccc2c(CC3=NCCN3)cccc2c1` [NAP, NAPHAZOLINE HCL, reference compound], for which the “24 hour penetration (total micrograms base)” value was 161 micrograms base and the “Penetration enhanced by imidazole” value is reported as 480%.
As to `CNC[C@H](O)c1cccc(O)c1` [PHE, PHENYLEPHRINE HCL, reference compound], the “24 hour penetration (total micrograms base)” value came out at 266 micrograms base.
As to `Cc1ccc(/C(=C\CN2CCCC2)c2ccccn2)cc1` [TRP, TRIPROLIDINE HCL, reference compound], the “24 hour penetration (total micrograms base)” value turned out to be 180 micrograms base.
